# Source: patent publication US10245255B2, “Compositions and methods for the treatment of obesity and related disorders” (THE REGENTS OF THE UNIVERSITY OF MICHIGAN, priority 2011, dated 2019)
# Entries after “also recorded” stand apart in the source; their conditions may differ.
# Legend:
# [1] = Ob/ob mice: blood chemistry (glucose, adiponectin, serum cytokines); type: in vivo
# Protocol: (§1) Wild type male C57BL/6 mice were fed a high fat diet consisting of 45% of calories from fat (D12451 Research Diets Inc., New Brunswick, N.J.) starting at 8 weeks of age for 12-24 weeks, while normal diet C57BL/6 controls were maintained on normal chow diet consisting of 4.5% fat (5002 Lab Diet, Philadelphia, Pa.). Diets containing ω-3 fatty acids were fed as previously described 24. Rosiglitazone treatment was administered for three weeks by addition of the compound to the diet in mice that had been on HFD for 16 weeks. Each mouse consumed on average 3.5 mg/kg rosiglitazone per day. Amlexanox was administered by daily oral gavage. […] Animals were housed in a specific pathogen-free facility with a 12-hour light/12-hour dark cycle and given free access to food and water. All animal use was in compliance with the Institute of Laboratory Animal Research Guide for the Care and Use of Laboratory Animals and approved by the University Committee on Use and Care of Animals at the University of Michigan and UCSD.
# (§2) Blood glucose was measured by OneTouch Ultra Glucometer. Plasma from mice fasted for six hours was isolated from whole blood collected into heparinized tubes. Insulin concentrations were measured by insulin ELISA kit (Crystal Chem Inc., Downers Grove, Ill.). Leptin and adiponectin levels were measured by ELISA kits purchased from Cayman Chem Inc. (Ann Arbor, Mich.). Cytokine levels were quantified utilizing luminex technology in a multianalyte panel plate purchased from Millipore (Billerica, Mass.). Additionally, TNFα levels were measured using ELISA kits purchased from R&D Systems (Minneapolis, Minn.).
# [2] = High fat diet prevention group: oral glucose tolerance test; type: in vivo, C57BL/6 mice; conditions: 25 mg/kg for 8 weeks concurrently with high fat diet
# Protocol: as §1
# (§3) For glucose tolerance tests, after a six-hour fast mice were orally gavaged with glucose at a dose of 1.5 g/kg (C57BL/6 mice) or 1.2 g/kg (ob/ob mice). […] Blood glucose was measured at basal, 15, 30, 45, 60, 90, 120 and 180 minutes from tail blood using the One Touch Ultra glucometer (Lifescan, Milpitas, Calif.).
# [3] = Ob/ob mice: insulin tolerance test; type: in vivo; conditions: 100 mg/kg, 8-week period
# Protocol: (§4) Particular physiological tests were used during the development of the technology provided herein. For example, in some of the experiments described below, subjects were tested for tolerance of injected glucose and insulin according to the methods described in Chiang et al. (“The protein kinase IKKepsilon regulates energy balance in obese mice”, Cell (2009) 138: 961-975, incorporated herein by reference in its entirety for all purposes). In some of the experiments described below, subjects were tested for tolerance of oral glucose. In particular, mice were fasted for 6 hours before the studies. For ob/ob mice, 1.0-1.5 mg/g of glucose was gavaged into mice, and blood glucose was measured with a glucometer (e.g., OneTouch Ultra glucometer). Measurement of triglycerides, mRNA, and cytokines were performed according to the methods described in Chiang et al. (The protein kinase IKKepsilon regulates energy balance in obese mice. Cell (2009) 138: 961-975).
# as §3
# [4] = Diet-induced obesity treatment group: insulin tolerance test; type: in vivo, C57BL/6 mice
# Protocol: as §1, §3
# [5] = Diet-induced obesity treatment group: blood chemistry; type: in vivo, C57BL/6 mice
# Protocol: as §1, §2
# [6] = Ob/ob mice: body weight, food intake, adipose mass; type: in vivo; conditions: 100 mg/kg
# [7] = Ob/ob mice: glucose tolerance tests; type: in vivo; conditions: 100 mg/kg
# Protocol: as §4, §3
# [8] = Diet-induced obese mice: energy expenditure (metabolic cages) and core body temperature; type: in vivo, C57BL/6 mice; conditions: 25 mg/kg
# Protocol: The University of Michigan Animal Metabolic Phenotyping Core measured oxygen consumption (VO2), carbon dioxide production (VCO2) and spontaneous motor activity during 3 consecutive days using the Comprehensive Laboratory Monitoring System (CLAMS, Columbus Instruments), an integrated open-circuit calorimeter equipped with an optical beam activity monitoring system. The respiratory quotient was calculated by dividing carbon dioxide production by oxygen consumption. The mean values for light and dark cycles were used to analyze statistical significance.
# Rectal temperature measurements were performed using a YSI 4600 Precision thermometer (YSI, Inc., Yellow Springs, Ohio).
# [9] = tested on: BAT explants; test: Lipid oxidation rate in ex vivo BAT; design: species or system mice; conditions: 5 μM amlexanox, 1 hour
# Protocol: Lipid oxidation was determined by the conversion of 3H-palmitic acid to 3H2O.
# [10] = High fat diet prevention group: body weight and food intake; type: in vivo, C57BL/6 mice
# Protocol: as §1
# The remaining weight of food provided was determined daily for singly housed mice. Daily food consumption was calculated from a three-day average.
smiles,measurement,setting,value
"CC(C)c1ccc2oc3nc(N)c(C(=O)O)cc3c(=O)c2c1 [amlexanox, 2-amino-7-isopropyl-5-oxo-5H-chromeno[2,3-b]pyridine-3-carboxylic acid]",circulating (serum) level of MCP-1,[1]; 100 mg/kg,not significantly affected
same,circulating (serum) level of Rantes,[1]; 100 mg/kg,not significantly affected
same,circulating adiponectin levels,[1]; 100 mg/kg,increase
same,reduction in fasting glucose levels,[1]; 100 mg/kg,25%
same,serum level of IL-1α,[1]; 100 mg/kg,markedly reduced
same,serum level of MIP1α,[1]; 100 mg/kg,markedly reduced
same,serum level of TNFα,[1]; 100 mg/kg,markedly reduced
same,serum level of IL-10,[1]; compared to controls,elevated
same,reduction in the area under the curve for glucose (oral glucose tolerance),[2],30-40%
same,insulin sensitivity (responsiveness to injected insulin),[3],dramatically improved
same,insulin sensitivity (insulin tolerance test),"[4]; 25 mg/kg, established diet-induced obesity",restoration in insulin responsiveness to normal diet levels
same,insulin sensitivity in normal diet-fed mice,[4]; normal diet,did not affect
same,fasting serum insulin,[5]; 25 mg/kg for 8 weeks after established diet-induced obesity,reversed elevations
same,decrease in fasting levels of leptin,"[5]; 25 mg/kg, HFD, treatment phase",80%
same,serum cholesterol,"[5]; 25 mg/kg, HFD, treatment phase",unchanged
same,serum free fatty acids,"[5]; 25 mg/kg, HFD, treatment phase",unchanged
same,serum triglycerides,"[5]; 25 mg/kg, HFD, treatment phase",unchanged
same,adipose tissue mass,[6],significant decrease
same,weight loss,[6]; after 4 weeks of treatment,7 to 8 g
same,tolerance to injected glucose,[7]; 5-week period,faster clearance of blood glucose
same,reduction in the area under the curve (oral glucose tolerance),"[7]; 8-week period, relative to control mice",30-40%
same,body temperature (rectal),[8]; compared to HFD vehicle treated mice,approximate one-degree increase
same,exhaled carbon dioxide,"[8]; diet induced obese mice, four-week treatment",significantly increased
same,oxygen consumption (VO2),"[8]; diet induced obese mice, four-week treatment, vs vehicle",significantly increased; also recorded: significantly higher
same,lipid oxidation (3H-palmitic acid to 3H2O),[9],acutely stimulated
same,body weight compared with control diet mice,"[10]; 45% fat diet, 25 or 100 mg/kg, throughout 12 weeks",maintained weights equivalent to those of control diet mice
same,weight gain produced by high-fat diet,"[10]; 45% fat diet, daily gavage, either dose 25 or 100 mg/kg",prevented the weight gain
same,weight gain after switching to 60% fat diet,"[10]; both doses 25 and 100 mg/kg, after 12 weeks on 45% fat diet",prevented substantial weight gain
